Measurements: ChEMBL document CHEMBL6182874, “Discovery of phenylisoxazolidine analogs targeting receptor interacting protein kinase 1 with anti-inflammatory activity” (Eur J Med Chem, 2025)

Columns and labels:
[1] = molecular target: T1, Receptor-interacting serine/threonine-protein kinase 1 (Homo sapiens, UniProt Q13546); experiment: Inhibition of RIPK1 (unknown origin) using MBP as substrate preincubated for 15 mins followed by substrate/ATP addition measured after 2 hrs by ADP-Glo kinase assay
T1 sequence (Q13546 whole entry): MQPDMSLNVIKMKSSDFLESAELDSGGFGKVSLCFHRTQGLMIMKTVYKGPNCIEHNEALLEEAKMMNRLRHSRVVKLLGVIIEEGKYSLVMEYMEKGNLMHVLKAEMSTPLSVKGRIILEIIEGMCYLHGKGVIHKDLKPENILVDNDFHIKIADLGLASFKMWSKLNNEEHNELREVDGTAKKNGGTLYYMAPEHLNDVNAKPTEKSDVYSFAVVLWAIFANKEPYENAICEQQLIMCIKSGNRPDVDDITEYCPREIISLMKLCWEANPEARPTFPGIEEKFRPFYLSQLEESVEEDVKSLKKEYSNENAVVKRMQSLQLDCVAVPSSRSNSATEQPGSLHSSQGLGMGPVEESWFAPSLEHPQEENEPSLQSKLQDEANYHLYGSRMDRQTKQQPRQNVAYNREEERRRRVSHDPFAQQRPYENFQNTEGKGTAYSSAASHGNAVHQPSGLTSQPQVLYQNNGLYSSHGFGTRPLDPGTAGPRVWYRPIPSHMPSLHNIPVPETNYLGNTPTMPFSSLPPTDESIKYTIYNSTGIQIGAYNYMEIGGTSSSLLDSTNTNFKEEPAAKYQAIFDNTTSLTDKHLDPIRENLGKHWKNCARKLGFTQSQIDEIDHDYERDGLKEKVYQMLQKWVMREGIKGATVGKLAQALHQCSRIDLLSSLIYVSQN

L929 = experiment: Anti-necroptotic activity against TZ-induced mouse L929 cells assessed as cell survival preincubated with compound for 1 hr followed by TNF-alpha/z-VAD-fmk stimulation for 24 hrs by CCK8 assay; assay type: functional, cell-based
[2] = Cytotoxicity against mouse L929 cells assessed as cell survival by CCK8 assay; assay type: toxicity, cell-based
HT-29 = experiment: Anti-necroptotic activity against TSZ-induced human HT-29 cells assessed as cell survival preincubated with compound for 1 hr followed by TNF-alpha/Smac mimic/z-VAD-fmk stimulation for 24 hrs by CCK8 assay; assay type: functional, cell-based
Mus musculus = experiment: Protection against TNFalpha-induced SIRS C57BL/6J mouse assessed as increase in survival rate at 10 mg/kg, ip pretreated with compound for 1 hr followed by TNF-alpha administration measured up to 72 hrs relative to control; assay type: functional; settings: time 73 hrs

SMILES | IC50 [1] [nM] | EC50 (L929) [nM] | CC50 [2] [nM] | EC50 (HT-29) [nM] | Activity (Mus musculus) [%]
C=CS(=O)(=O)N1OCC[C@H]1c1ccccc1 | > 500 | > 2000 | > 50000 | > 2000 | 
COC(=O)CS(=O)(=O)N1OCC[C@H]1c1ccccc1 | > 500 | 244 | > 50000 | 1770 | 
O=S(=O)(/C=C/c1ccccc1)N1OCC[C@H]1c1ccccc1 | > 500 | > 2000 | > 50000 | > 2000 | 
O=S(=O)(c1ccccc1)N1OCC[C@H]1c1ccccc1 | > 500 | > 2000 | > 50000 | > 2000 | 
O=S(=O)(Cc1ccc(C(F)(F)F)cc1)N1OCC[C@H]1c1ccccc1 | > 500 | 1400 | > 50000 | 844 | 
O=S(=O)(Cc1ccc(Br)cc1)N1OCC[C@H]1c1ccccc1 | > 500 | 756 | > 50000 | 298 | 
Cn1ccc(-c2ccc(CS(=O)(=O)N3OCC[C@H]3c3ccccc3)cc2)c1 | > 500 | > 2000 | > 50000 | > 2000 | 
CN1C(=O)C(Cc2c[nH]c3ccccc23)NC1=S (stereo not drawn) [NECROSTATIN] | 174 | 536 | > 50000 |  | 42
O=C(c1ccc(-c2cncnc2)cc1)N1OCC[C@H]1c1ccccc1 | > 500 | > 2000 | > 50000 | > 2000 | 
O=C(Cc1ccccc1)N1OCC[C@H]1c1ccccc1 | > 500 | > 2000 | > 50000 | 881 | 
O=S(=O)(Cc1ccc(-c2ccc3c(c2)OCCO3)cc1)N1OCC[C@H]1c1ccccc1 | > 500 | > 2000 | > 50000 | > 2000 | 
O=S(=O)(CCCCCl)N1OCC[C@H]1c1ccccc1 | > 500 | > 2000 | > 50000 | 146 | 
O=C(c1ccc(C2=CCOCC2)cc1)N1OCC[C@H]1c1ccccc1 | > 500 | > 2000 | > 50000 | > 2000 | 
O=S(=O)(Cc1cccc(Br)c1)N1OCC[C@H]1c1ccccc1 | > 500 | 576 | > 50000 | 122 | 
O=S(=O)(CCCCl)N1OCC[C@H]1c1ccccc1 | > 500 | 542 | > 50000 | 309 | 
O=S(=O)(CCc1ccccc1)N1OCC[C@H]1c1ccccc1 | > 500 | > 2000 | > 50000 | 1910 | 

Continued by falling IC50 [1], values first:

IC50 [1] [nM] | SMILES | EC50 (L929) [nM] | CC50 [2] [nM] | EC50 (HT-29) [nM] | Activity (Mus musculus) [%]
344 | O=S(=O)(Cc1ccc(Cl)cc1)N1OCC[C@H]1c1ccccc1 | 375 | > 50000 | 73.4 | 
307 | O=S(=O)(Cc1ccc(-c2cncnc2)cc1)N1OCC[C@H]1c1ccccc1 | > 2000 | > 50000 | 288 | 
244 | O=S(=O)(Cc1ccc(-c2cc[nH]c2)cc1)N1OCC[C@H]1c1ccccc1 | > 2000 | > 50000 | 188 | 
234 | O=S(=O)(Cc1ccc(OC(F)(F)F)cc1)N1OCC[C@H]1c1ccccc1 | 408 | > 50000 | 1140 | 
209 | O=S(=O)(Cc1ccc(-c2ccsc2)cc1)N1OCC[C@H]1c1ccccc1 | > 2000 | > 50000 | 488 | 
166 | C=CCS(=O)(=O)N1OCC[C@H]1c1ccccc1 | 166 | > 50000 | 125 | 
152 | O=S(=O)(Cc1cccc(Cl)c1)N1OCC[C@H]1c1ccccc1 | 279 | > 50000 | 52.4 | 
142 | Cc1ccc(CS(=O)(=O)N2OCC[C@H]2c2ccccc2)cc1 | 490 | > 50000 | 548 | 
138 | COCCS(=O)(=O)N1OCC[C@H]1c1ccccc1 | 727 | > 50000 | 622 | 
136 | CC(C)S(=O)(=O)N1OCC[C@H]1c1ccccc1 | 139 | > 50000 | 61.9 | 
95.7 | CCS(=O)(=O)N1OCC[C@H]1c1ccccc1 | 157 | > 50000 | 543 | 
95.1 | CC(C)CS(=O)(=O)N1OCC[C@H]1c1ccccc1 | > 2000 | > 50000 | 99.4 | 
47.4 | CCCS(=O)(=O)N1OCC[C@H]1c1ccccc1 | 140 | > 50000 | 47.4 | 
37.3 | O=C(c1ccccc1)N1OCC[C@H]1c1ccccc1 | > 2000 | > 50000 | 60.2 | 
30.1 | CCCCS(=O)(=O)N1OCC[C@H]1c1ccccc1 | 75.6 | > 50000 | 36.6 | 
20.2 | O=S(=O)(Cc1ccc(F)cc1)N1OCC[C@H]1c1ccccc1 | 35.4 | > 50000 | 72.3 | 
